Laboratory results as given in ChEMBL document CHEMBL5537161, “Structure-Guided Design, Synthesis, and Antivirulence Assessment of Covalent Staphylococcus aureus Sortase A Inhibitors” (J Med Chem, 2024).
Converted amounts (≈) assume the structure as drawn. The source made the active and inactive calls. No cut-off for these calls is given here.

Experiments:
Sortase A [1] = target: T1, Sortase A (Staphylococcus aureus, UniProt Q9S446, N24DEL); assay: Inhibition of Staphylococcus aureus sortase A N24 deletion mutant using Abz-LPATG-Dnp as substrate preincubated for 20 mins followed by substrate addition by FRET assay
Staphylococcus aureus [2] = assay: Bactericidal activity against Staphylococcus aureus Newman assessed as reduction in bacterial growth incubated for 16 to 18 hrs; assay type: functional; conditions: time 16-18 hrs
Sortase A [3] = target: T1, Sortase A; assay: Inhibition of Staphylococcus aureus Sortase A N24 deletion mutant transpeptidation using IsdA64-323 as substrate preincubated for 20 mins followed by substrate addition and measured after 1.5 hrs by SDS-PAGE analysis
[4] = Inhibition of Streptococcus pyogenes Sortase A N81 deletion mutant transpeptidation using IsdA64-323 as substrate preincubated for 20 mins followed by substrate addition and measured after 1.5 hrs by SDS-PAGE analysis
[5] = system: Sortase A (Staphylococcus aureus), Q9S446 [UNDEFINED MUTATION]; assay: Inhibition of Staphylococcus aureus Sortase A N24 deletion mutant transpeptidation assessed as thermal stabilization by measuring change in melting temperature at 80 uM incubated for 15 mins by Nano-DSF assay
Streptococcus pyogenes [6] = assay: Inhibition of Streptococcus pyogenes Sortase A N81 deletion mutant transpeptidation assessed as thermal stabilization by measuring change in melting temperature at 80 uM incubated for 15 mins by Nano-DSF assay
[7] = system: Sortase A (Staphylococcus aureus), Q9S446 [UNDEFINED MUTATION]; assay: Irreversible inhibition of Staphylococcus aureus sortase A N24 deletion mutant preincubated with compound for 1 to 60 mins followed by substrate addition by FRET based assay; conditions: time 1-60 min, TDE = time-dependent effect
Streptococcus pyogenes [8] = assay: Irreversible inhibition of Streptococcus pyogenes Sortase A N81 deletion mutant preincubated with compound for 1 to 60 mins followed by substrate addition by FRET based assay; conditions: time 1-60 min, TDE = time-dependent effect
Cathepsin B = Cathepsin B (Homo sapiens, UniProt P07858); assay: Inhibition of cathepsin B (unknown origin) at 2 uM using Cbz-Phe-Arg-AMC as substrate preincubated for 5 mins followed by substrate addition by fluorescence based assay
Procathepsin L = Procathepsin L (Homo sapiens, UniProt P07711); assay: Inhibition of cathepsin L (unknown origin) at 2 uM using Cbz-Phe-Arg-AMC as substrate preincubated for 5 mins followed by substrate addition by fluorescence based assay
Staphylococcus aureus [9] = assay: Antivirulence activity against Staphylococcus aureus Newman assessed as reduction in abundance of anchored SpA in bacterial envelope by Western blotting analysis; assay type: functional, organism-based; conditions: dose 6.25-100 µM
Staphylococcus aureus [10] = assay: Antivirulence activity against Staphylococcus aureus Newman assessed as reduction in abundance of Sbi at 6.25 to 100 uM by Western blotting analysis; assay type: functional, organism-based; conditions: dose 6.25-100 µM
Staphylococcus aureus [11] = assay: Inhibition of Staphylococcus aureus Newman biofilm formation incubated for 14 hrs by Crystal violet staining based assay; assay type: functional, organism-based; conditions: dose 12.5-100 µM
Staphylococcus aureus [12] = assay: Inhibition of Staphylococcus aureus USA300 biofilm formation incubated for 14 hrs by Crystal violet staining based assay; assay type: functional, organism-based; conditions: dose 12.5-100 µM
Staphylococcus aureus [13] = assay: Antibacterial activity against Staphylococcus aureus Newman assessed as reduction in bacterial growth at 100 uM incubated for 14 hrs by microplate reader assay; assay type: functional, organism-based
Staphylococcus aureus [14] = assay: Antibacterial activity against Staphylococcus aureus USA300 assessed as reduction in bacterial growth at 100 uM incubated for 14 hrs by microplate reader assay; assay type: functional, organism-based
[15] = Toxicity in Galleria mellonella larvae assessed as effect on survival at 60 mg/kg measured after 120 hrs; assay type: organism-based; conditions: in vivo
[16] = Toxicity in Galleria mellonella larvae assessed as change in appearance at 60 mg/kg measured after 120 hrs; assay type: organism-based; conditions: in vivo
[17] = Toxicity in Galleria mellonella assessed as change in color at 60 mg/kg measured after 120 hrs; assay type: organism-based; conditions: in vivo
Staphylococcus aureus [18] = assay: Antibacterial activity against Staphylococcus aureus Newman infected in Galleria mellonella assessed as reduction in melanization at 200 uM pretreated with compound followed by larvae infection measured after 24 hrs; assay type: functional, organism-based
Staphylococcus aureus [19] = assay: Antibacterial activity against Staphylococcus aureus USA300 infected in Galleria mellonella assessed as reduction in melanization at 200 uM pretreated with compound followed by larvae infection measured after 24 hrs; assay type: functional, organism-based
Staphylococcus aureus [20] = assay: Antibacterial activity against Staphylococcus aureus Newman infected in Galleria mellonella assessed as increase in larvae survival at 30 mg/kg measured every 24 hrs for 5 days; assay type: functional; conditions: time 5 day
Staphylococcus aureus [21] = assay: Antibacterial activity against Staphylococcus aureus USA300 infected in Galleria mellonella assessed as increase in larvae survival at 30 mg/kg measured every 24 hrs for 5 days; assay type: functional; conditions: time 5 day

Sequence of Procathepsin L (P07711 114-333 limits assumed): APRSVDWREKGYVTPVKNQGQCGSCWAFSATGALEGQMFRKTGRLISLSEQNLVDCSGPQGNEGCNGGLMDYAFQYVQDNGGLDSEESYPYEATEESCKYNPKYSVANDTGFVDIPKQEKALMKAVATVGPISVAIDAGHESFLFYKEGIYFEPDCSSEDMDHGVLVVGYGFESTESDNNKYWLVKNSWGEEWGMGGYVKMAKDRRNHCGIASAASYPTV

**Q.** Which IC50 (Sortase A [1]) does the source give for `CC(C)CC=C1C(=O)NC(=O)NC1=O` here?
**A.** > 50 µM

**Q.** What about the MIC (Staphylococcus aureus [2]) of the same molecule?
**A.** > 128 µg/mL

**Q.** Which IC50 (Sortase A [1]) does the source give for `Cc1ccc(/C=C/C=C2C(=O)NC(=O)NC2=O)cc1` here?
**A.** 1 µM

**Q.** And the MIC (Staphylococcus aureus [2])?
**A.** 128 µg/mL (≈ 499 µM)

**Q.** Which IC50 (Sortase A [1]) does the source give for `Cc1ccc(COc2ccc(/C=C/C=C3C(=O)NC(=O)NC3=O)cc2)cc1` here?
**A.** 1.1 µM

**Q.** What about the MIC (Staphylococcus aureus [2]) of the same molecule?
**A.** > 128 µg/mL

**Q.** Which IC50 (Sortase A [1]) does the source give for `COc1ccc(/C=C/C=C2C(=O)N(C)C(=S)N(C)C2=O)cc1` here?
**A.** > 50 µM

**Q.** And the MIC (Staphylococcus aureus [2])?
**A.** > 128 µg/mL

**Q.** Which IC50 (Sortase A [1]) does the source give for `O=C1NC(=O)C(=C/C=C/c2ccc(OCc3ccncc3)cc2)C(=O)N1` here?
**A.** > 50 µM

**Q.** What about the MIC (Staphylococcus aureus [2]) of the same molecule?
**A.** > 128 µg/mL

**Q.** For `CC(=O)Oc1ccc(COc2ccc(/C=C/C=C3C(=O)NC(=O)NC3=O)cc2)cc1`, which IC50 (Sortase A [1]) is on record?
**A.** 0.8 µM

**Q.** What about the MIC (Staphylococcus aureus [2]) of the same molecule?
**A.** > 128 µg/mL

**Q.** What about the IC50 (Sortase A [3]) of the same molecule?
**A.** 16.1 µM

**Q.** Which IC50 (Sortase A [1]) does the source give for `O=C1NC(=O)C(=C/C=C/c2ccc(OCC(=O)c3ccc[nH]3)cc2)C(=O)N1` here?
**A.** 0.5 µM

**Q.** And the MIC (Staphylococcus aureus [2])?
**A.** > 128 µg/mL

**Q.** What about the IC50 (Sortase A [3]) of the same molecule?
**A.** 15.3 µM

**Q.** What does the source list for `COC(=O)COc1ccc(/C=C/C=C2C(=O)NC(=O)NC2=O)cc1`?
**A.** IC50 (Sortase A [1]): 1 µM; MIC (Staphylococcus aureus [2]): > 128 µg/mL

**Q.** With `CSCC[C@H](NC(=O)OCc1ccccc1)C(=O)Oc1ccc(/C=C/C=C2C(=O)NC(=O)NC2=O)cc1` as the molecule, how does the IC50 (Sortase A [1]) read?
**A.** 6.9 µM

**Q.** What about the MIC (Staphylococcus aureus [2]) of the same molecule?
**A.** 128 µg/mL (≈ 244 µM)

**Q.** For `COc1ccc(/C=C/C=C2C(=O)NC(=O)NC2=O)cc1`, which IC50 (Sortase A [1]) is on record?
**A.** 1 µM

**Q.** What about the MIC (Staphylococcus aureus [2]) of the same molecule?
**A.** > 128 µg/mL

**Q.** And the IC50 (Sortase A [3])?
**A.** 7.4 µM

**Q.** What about the IC50 [4] of the same molecule?
**A.** 3.4 µM

**Q.** And the ΔTm [5]?
**A.** 4.5 °C

**Q.** What about the ΔTm (Streptococcus pyogenes [6]) of the same molecule?
**A.** 9.3 °C

**Q.** And the inhibition [7]?
**A.** Tde

**Q.** And the inhibition (Streptococcus pyogenes [8])?
**A.** Tde

**Q.** And the inhibition (Cathepsin B)?
**A.** Active

**Q.** And the inhibition (Procathepsin L)?
**A.** Active

**Q.** What about the Activity (Staphylococcus aureus [9]) of the same molecule?
**A.** Active

**Q.** And the Activity (Staphylococcus aureus [10])?
**A.** Active

**Q.** And the inhibition (Staphylococcus aureus [11])?
**A.** Dose-Dependent Effect

**Q.** And the inhibition (Staphylococcus aureus [12])?
**A.** Dose-Dependent Effect

**Q.** And the Activity (Staphylococcus aureus [13])?
**A.** inactive

**Q.** And the Activity (Staphylococcus aureus [14])?
**A.** inactive

**Q.** What about the Activity [15] of the same molecule?
**A.** Non-Toxic

**Q.** What about the Activity [16] of the same molecule?
**A.** Non-Toxic

**Q.** And the Activity [17]?
**A.** Non-Toxic

**Q.** What about the Activity (Staphylococcus aureus [18]) of the same molecule?
**A.** Active

**Q.** And the Activity (Staphylococcus aureus [19])?
**A.** Active

**Q.** What about the Activity (Staphylococcus aureus [20]) of the same molecule?
**A.** <40%

**Q.** What about the Activity (Staphylococcus aureus [21]) of the same molecule?
**A.** 40%

**Q.** With `O=C1NC(=O)C(=C/C=C/c2ccc(Cl)c(Cl)c2)C(=O)N1` as the molecule, how does the IC50 (Sortase A [1]) read?
**A.** 1 µM

**Q.** What about the MIC (Staphylococcus aureus [2]) of the same molecule?
**A.** 32 µg/mL (≈ 103 µM)

**Q.** For `COc1ccc(/C=C/C=C2C(=O)c3ccccc3C2=O)cc1`, which IC50 (Sortase A [1]) is on record?
**A.** > 50 µM

**Q.** And the MIC (Staphylococcus aureus [2])?
**A.** > 128 µg/mL

**Q.** Which IC50 (Sortase A [1]) does the source give for `COc1ccc(/C=C/C=C2C(=O)NC(=O)NC2=O)cn1` here?
**A.** 2.3 µM

**Q.** And the MIC (Staphylococcus aureus [2])?
**A.** > 128 µg/mL

**Q.** With `O=C1NC(=O)C(=CNCc2ccc(Br)cc2)C(=O)N1` as the molecule, how does the IC50 (Sortase A [1]) read?
**A.** > 50 µM

**Q.** What about the MIC (Staphylococcus aureus [2]) of the same molecule?
**A.** > 128 µg/mL
